Data taken from US10611789B2, “Crystalline form A of rebaudioside D, and preparation method and application therefor” (ZHUCHENG HAOTIAN PHARM CO., LTD, priority 2015, dated 2020).
In brackets after ≈: the same amount, converted by molar mass.

Experiments:
Type in all cases: physicochemical
[1] = dynamic vapor sorption (DVS) analysis; conditions: 25° C.
Method: DVS analysis: a DVS Intrinsic Dynamic Moisture Adsorption Device of UK SMS Instrument Company was used for detection. The measuring temperature: 25° C.; the relative humidity: 0-95%.

[2] = XRPD crystal form stability on storage
Method: XRPD analysis: a Bruker D8 advance diffractometer from German Brook Instruments Co. LTD was used for detection at room temperature, using Cu-Kα ray (λ=1.5418 Å) with 2θ angle scanning from 3° to 40° at a scanning speed of 0.2°/second.
The crystal form A of Rebaudioside D prepared in the above examples was subjected to XRPD analysis under the conditions of 25° C. and RH≤30%. The analysis results are shown in FIG. 6, and it can be seen from FIG. 6 that the crystal form thereof is unchanged and has a good stability.
The crystal form A of Rebaudioside D prepared in the above examples was stored for 6 months under the conditions of 25° C. and RH≤60%. The analysis results are shown in FIG. 7, and it can be seen from FIG. 7 that the crystal form thereof is unchanged and has a good stability.

[3] = HPLC chemical stability on storage; conditions: after six months of storage (25° C., relative humidity 60%)
Method: HPLC analysis: a 1260 infinity liquid chromatograph from American Agilent Technologies was used for determination. Preparation method for the sample solution: 25-50 mg of the Rebaudioside D sample was accurately weighed, and placed in a 25 ml of volumetric flask, and then a solution of water-acetonitrile (7:3, v/v) was added for dissolution and the volume was set to the scale. The fomulation method for sodium phosphate buffer (specification: 10 mmol/L, pH: 2.6): 2.76 g of sodium dihydrogen phosphate was dissolved in 2 L of water, phosphoric acid was added and the pH was adjusted to 2.6. Chromatographic column: Phenomenex's Luna 5μ C18 (2) 100 A column. Injection volume: 5 μl. Flow rate: 1.0 mL/min. Column temperature: 40° C. Detector: 210 nm of UV detection. Mobile phase: acetonitrile and sodium phosphate buffer (specification: 10 mmol/L, pH: 2.6) at a ratio of 32:68.

[4] = water solubility of crystal form A

Structure (SMILES): C=C1C[C@@]23CCC4[C@@](C)(CCC[C@@]4(C)C(=O)O[C@@H]4OC(CO)[C@@H](O)C(O)C4OC4OC(CO)[C@@H](O)C(O)C4O)C2CC[C@]1(OC1OC(CO)C(O)C(OC2OC(CO)C(O)C(O)C2O)C1OC1OC(CO)C(O)C(O)C1O)C3 (stereo partly drawn) [crystal form A of Rebaudioside D, Rebaudioside D]
- mass percentage of absorbed moisture ([1]; within a relative humidity of 0-40%): 0-3.4%
- mass percentage of absorbed moisture ([1]; within a relative humidity of 40-100%): 3.4-7.1%
- crystal form by XRPD ([2]; 25° C. and RH≤30%): unchanged
- crystal form by XRPD after storage ([2]; stored for 6 months, 25° C. and RH≤60%): unchanged
- variation of HPLC purity compared with the raw material [3]: less than 0.5%
- solubility [4]: ~600 µg/mL (≈ 531 µM)
